In US8716475B2, “2-aminopyrimidine modulators of the histamine H4 receptor” (Janssen Pharmaceutica NV, priority 2007, dated 2014) one finds Ki data, which are given here for 46 molecules.

For orientation: Ki means the equilibrium dissociation constant of an inhibitor or competing ligand from its target.

Molecules are shown by their SMILES. Structures can show the parent of a compound that is named as a salt.

T1 sequence (Q9H3N8 whole entry): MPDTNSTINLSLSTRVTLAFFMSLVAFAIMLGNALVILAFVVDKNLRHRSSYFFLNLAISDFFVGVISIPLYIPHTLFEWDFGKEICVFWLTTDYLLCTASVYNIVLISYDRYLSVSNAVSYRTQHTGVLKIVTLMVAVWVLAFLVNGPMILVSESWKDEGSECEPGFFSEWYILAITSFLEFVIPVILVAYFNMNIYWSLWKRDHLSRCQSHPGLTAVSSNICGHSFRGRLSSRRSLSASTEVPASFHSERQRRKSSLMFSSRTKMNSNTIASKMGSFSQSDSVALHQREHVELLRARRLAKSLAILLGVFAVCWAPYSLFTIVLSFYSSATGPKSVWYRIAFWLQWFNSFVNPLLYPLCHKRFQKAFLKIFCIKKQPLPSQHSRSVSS

One test addresses T1, human H4 receptor (Homo sapiens, UniProt Q9H3N8).
T1 construct: expressed in transfected cells
Briefly: Binding Assay on Recombinant Human Histamine H4 Receptor. As to conditions: Table 2, data marked with an asterisk (*): obtained by the cell harvester method; [3H] histamine competition binding, SK-N-MC membranes. Summed up: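 Radioligand binding used membranes from SK-N-MC cells stably or transiently expressing human H4, prepared in 50 mM Tris/5 mM EDTA. Nonspecific binding was defined with 100 μM histamine. Bound radioactivity was counted after filtration on PEI-treated GF/C filters, and ">" values are the highest concentration tested.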
`CN(CCN)c1cc(C(C)(C)C)nc(N)n1` [Example 131, N^4-(2-Amino-ethyl)-6-tert-butyl-N^4-methyl-pyrimidine-2,4-diamine]: the Ki was 412 nM.

Consider `CC(C)(C)c1cc(N2C[C@H]3CNC[C@H]3C2)nc(N)n1` [Example 132, 4-tert-Butyl-6-(cis-hexahydro-pyrrolo[3,4-c]pyrrol-2-yl)-pyrimidin-2-ylamine], for which the Ki amounted to 356 nM.

For `CC(C)(C)c1cc(N2CC(N)C2)nc(N)n1` [Example 133, 4-(3-Amino-azetidin-1-yl)-6-tert-butyl-pyrimidin-2-ylamine], the Ki was 238 nM.

Still in this test, the particulars now being: Table 2; [3H] histamine competition binding, membranes of SK-N-MC cells transfected with human H4 receptor; average of results.
Turning to `CC(C)(C)c1cc(N2CC[C@H](N)C2)nc(N)n1` [Example 129, (S)-4-(3-Amino-pyrrolidin-1-yl)-6-tert-butyl-pyrimidin-2-ylamine], the Ki came to 46 nM.

On to `CC(C)(C)c1cc(N2CC3CCC(C2)N3)nc(N)n1` [Example 134, 4-tert-Butyl-6-(3,8-diaza-bicyclo[3.2.1]oct-3-yl)-pyrimidin-2-ylamine], for which the Ki came out at 130 nM.

`CCCCc1cc(N2CC[C@@H](N)C2)nc(N)n1` [Example 135, (R)-4-(3-Amino-pyrrolidin-1-yl)-6-butyl-pyrimidin-2-ylamine]: the Ki was determined as 4 nM.

In the case of `CCCCc1cc(N2CCN(C)CC2)nc(N)n1` [Example 136, 4-Butyl-6-(4-methyl-piperazin-1-yl)-pyrimidin-2-ylamine], the Ki is 1 nM.

For `CCCCc1cc(N2CC[C@@H](NC)C2)nc(N)n1` [Example 137, (R)-4-Butyl-6-(3-methylamino-pyrrolidin-1-yl)-pyrimidin-2-ylamine], the Ki is 2 nM.

For `CCCCc1cc(N(C)CCN)nc(N)n1` [Example 138, N^4-(2-Amino-ethyl)-6-butyl-N^4-methyl-pyrimidine-2,4-diamine], the Ki is 44 nM.

Turning to `CCCCc1cc(N2C[C@H]3CN(C)C[C@H]3C2)nc(N)n1` [Example 139, 4-Butyl-6-(cis-5-methyl-hexahydro-pyrrolo[3,4-c]pyrrol-2-yl)-pyrimidin-2-ylamine], the Ki stood at 138 nM.

For `CCCCc1cc(N2C[C@H]3CNC[C@H]3C2)nc(N)n1` [Example 140, Butyl-6-(cis-hexahydro-pyrrolo[3,4-c]pyrrol-2-yl)-pyrimidin-2-ylamine], the Ki amounted to 397 nM.

Regarding `CCCCc1cc(N2CC3CCCNC3C2)nc(N)n1` (stereo not drawn) [Example 141, 4-Butyl-6-(cis-octahydro-pyrrolo[3,4-b]pyridin-6-yl)-pyrimidin-2-ylamine], the inhibitory constant (Ki) is 84 nM.

For the molecule `CCCCc1cc(N2CCNCC2)nc(N)n1` [Example 142, 4-Butyl-6-piperazin-1-yl-pyrimidin-2-ylamine], the Ki is 3 nM.

For `CCCCc1cc(N2CC3CCC(C2)N3)nc(N)n1` [Example 143, 4-Butyl-6-(3,8-diaza-bicyclo[3.2.1]oct-3-yl)-pyrimidin-2-ylamine], the Ki came out at 13 nM.

With `CCCc1cc(N2CCN(C)CC2)nc(N)n1` [Example 144, 4-(4-Methyl-piperazin-1-yl)-6-propyl-pyrimidin-2-ylamine], the Ki was 6 nM.

In the case of `CCCc1cc(N2C[C@H]3CN(C)C[C@H]3C2)nc(N)n1` [Example 145, 4-(cis-5-Methyl-hexahydro-pyrrolo[3,4-c]pyrrol-2-yl)-6-propyl-pyrimidin-2-ylamine], the inhibition constant Ki is 117 nM.

Regarding `CC(C)Cc1cc(N2CCN(C)CC2)nc(N)n1` [Example 146, 4-Isobutyl-6-(4-methyl-piperazin-1-yl)-pyrimidin-2-ylamine], the Ki was found to be 3 nM.

Turning to `CC(C)Cc1cc(N2CCNCC2)nc(N)n1` [Example 147, 4-Isobutyl-6-piperazin-1-yl-pyrimidin-2-ylamine], the Ki was 4 nM.

Take `CN[C@@H]1CCN(c2cc(CC(C)C)nc(N)n2)C1` [Example 148, (R)-4-Isobutyl-6-(3-methylamino-pyrrolidin-1-yl)-pyrimidin-2-ylamine]: the Ki came out at 1 nM.

As to `CC(C)Cc1cc(N2CC[C@@H](N)C2)nc(N)n1` [Example 149, (R)-4-(3-Amino-pyrrolidin-1-yl)-6-isobutyl-pyrimidin-2-ylamine], the Ki came out at 3 nM.

Take `CCc1cc(N2CC[C@H](NC)C2)nc(N)n1` [Example 150, (S)-4-Ethyl-6-(3-methylamino-pyrrolidin-1-yl)-pyrimidin-2-ylamine]: the Ki worked out at 85 nM.

Regarding `CC1(c2cc(N3CCNCC3)nc(N)n2)CCOCC1` [Example 153, 4-(4-Methyl-tetrahydro-pyran-4-yl)-6-piperazin-1-yl-pyrimidin-2-ylamine], the inhibition constant (Ki) came out at 97 nM.

For the molecule `CN1CCN(c2cc(C3(C)CCOCC3)nc(N)n2)CC1` [Example 154, 4-(4-Methyl-piperazin-1-yl)-6-(4-methyl-tetrahydro-pyran-4-yl)-pyrimidin-2-ylamine], the Ki was 49 nM.

As for `CN[C@@H]1CCN(c2cc(C3(C)CCOCC3)nc(N)n2)C1` [Example 155, (R)-4-(3-Methylamino-pyrrolidin-1-yl)-6-(4-methyl-tetrahydro-pyran-4-yl)-pyrimidin-2-ylamine], the Ki is 82 nM.

Regarding `Nc1nc(C2CC2c2ccccc2)cc(N2CCNCC2)n1` (stereo not drawn) [Example 156, 4-(trans-2-Phenyl-cyclopropyl)-6-piperazin-1-yl-pyrimidin-2-ylamine], the Ki is 12 nM.

Consider `CN1CCN(c2cc(C3CC3c3ccccc3)nc(N)n2)CC1` (stereo not drawn) [Example 158, 4-(4-Methyl-piperazin-1-yl)-6-(trans-2-phenyl-cyclopropyl)-pyrimidin-2-ylamine], for which the Ki came to 8 nM.

Take `NCCNc1cc(C2CC2c2ccccc2)nc(N)n1` (stereo not drawn) [Example 159, N^4-(2-Amino-ethyl)-6-(trans-2-phenyl-cyclopropyl)-pyrimidine-2,4-diamine]: the inhibitory constant (Ki) was determined as 42 nM.

With `Nc1nc(C2Cc3ccccc3C2)cc(N2CC(N)C2)n1` [Example 161, 4-(3-Amino-azetidin-1-yl)-6-indan-2-yl-pyrimidin-2-ylamine salt], the Ki stood at 24 nM.

Regarding `Nc1nc(C2Cc3ccccc3C2)cc(N2CC[C@@H](N)C2)n1` [Example 162, (R)-4-(3-Amino-pyrrolidin-1-yl)-6-indan-2-yl-pyrimidin-2-ylamine], the Ki stood at 5 nM.

Consider `CN1CCN(c2cc(C3Cc4ccccc4C3)nc(N)n2)CC1` [Example 163, 4-Indan-2-yl-6-(4-methyl-piperazin-1-yl)-pyrimidin-2-ylamine], for which the Ki turned out to be 2 nM.

With `CN[C@@H]1CCN(c2cc(C3Cc4ccccc4C3)nc(N)n2)C1` [Example 164, (R)-4-Indan-2-yl-6-(3-methylamino-pyrrolidin-1-yl)-pyrimidin-2-ylamine], the inhibitory constant (Ki) worked out at 4 nM.

Turning to `Nc1nc(C2Cc3ccccc3C2)cc(N2CCNCC2)n1` [Example 165, 4-Indan-2-yl-6-piperazin-1-yl-pyrimidin-2-ylamine], the Ki came out at 2 nM.

With `Nc1nc(Cc2ccccc2)cc(N2CC(N)C2)n1` [Example 166, 4-(3-Amino-azetidin-1-yl)-6-benzyl-pyrimidin-2-ylamine], the Ki came to 52 nM.

Take `Nc1nc(Cc2ccccc2)cc(N2CC[C@@H](N)C2)n1` [Example 167, (R)-4-(3-Amino-pyrrolidin-1-yl)-6-benzyl-pyrimidin-2-ylamine]: the Ki was 78 nM.

For `NCCNc1cc(C2Cc3ccccc3C2)nc(N)n1` [Example 168, N^4-(2-Amino-ethyl)-6-indan-2-yl-pyrimidine-2,4-diamine], the inhibition constant Ki turned out to be 46 nM.

Turning to `CN[C@@H]1CCN(c2cc(C3Cc4ccccc4O3)nc(N)n2)C1` (stereo partly drawn) [Example 169, (R)-4-(2,3-Dihydro-benzofuran-2-yl)-6-(3-methylamino-pyrrolidin-1-yl)-pyrimidin-2-ylamine], the Ki was determined as 396 nM.

In the case of `CC1(c2cc(N3C[C@H]4CNC[C@H]4C3)nc(N)n2)CCOCC1` [Example 170, 4-(cis-Hexahydro-pyrrolo[3,4-c]pyrrol-2-yl)-6-(4-methyl-tetrahydro-pyran-4-yl)-pyrimidin-2-ylamine], the Ki is 5890 nM.

Consider `Nc1nc(C2Cc3ccccc3O2)cc(N2CCNCC2)n1` (stereo not shown) [Example 171, 4-(2,3-Dihydro-benzofuran-2-yl)-6-piperazin-1-yl-pyrimidin-2-ylamine], for which the Ki was found to be 106 nM.

With `Nc1nc(C2Cc3ccccc3O2)cc(N2CC(N)C2)n1` (stereo not shown) [Example 172, 4-(3-Amino-azetidin-1-yl)-6-(2,3-dihydro-benzofuran-2-yl)-pyrimidin-2-ylamine], the Ki stood at 932 nM.

Consider `Nc1nc(C2Cc3ccccc3C2)cc(N2C[C@H]3CNC[C@H]3C2)n1` [Example 173, 4-(cis-Hexahydro-pyrrolo[3,4-c]pyrrol-2-yl)-6-indan-2-yl-pyrimidin-2-ylamine], for which the Ki came out at 2070 nM.

Consider `CC1(c2cc(N3CC[C@@H](N)C3)nc(N)n2)CCOCC1` [Example 174, (R)-4-(3-Amino-pyrrolidin-1-yl)-6-(4-methyl-tetrahydro-pyran-4-yl)-pyrimidin-2-ylamine], for which the Ki came to 138 nM.

With `Nc1nc(C2CCOCC2)cc(N2CC[C@@H](N)C2)n1` [Example 175, (R)-4-(3-Amino-pyrrolidin-1-yl)-6-(tetrahydro-pyran-4-yl)-pyrimidin-2-ylamine], the Ki is 85 nM.

As for `NCCNc1cc(C2CCOCC2)nc(N)n1` [Example 176, N^4-(2-Amino-ethyl)-6-(tetrahydro-pyran-4-yl)-pyrimidine-2,4-diamine], the Ki was determined as 335 nM.

Regarding `CN(CCN)c1cc(C2CCOCC2)nc(N)n1` [Example 177, N^4-(2-Amino-ethyl)-N^4-methyl-6-(tetrahydro-pyran-4-yl)-pyrimidine-2,4-diamine], the Ki is 1030 nM.

For the molecule `Nc1nc(CCc2ccccc2)cc(N2CC[C@@H](N)C2)n1` [Example 178, (R)-4-(3-Amino-pyrrolidin-1-yl)-6-phenethyl-pyrimidin-2-ylamine], the Ki is 9 nM.

Regarding `CN1CCN(c2cc(CCc3ccccc3)nc(N)n2)CC1` [Example 179, 4-(4-Methyl-piperazin-1-yl)-6-phenethyl-pyrimidin-2-ylamine], the Ki was 6 nM.
